Here are results for two compounds from PMC10123126, “Insights into translocation mechanism and ribosome evolution from cryo-EM structures of translocation intermediates of Giardia intestinalis” (Nucleic Acids Research, 2023).

The target of this assay is T1, eEF2 (Giardia duodenalis, UniProt A8BU59).
T1 construct: gene GL50803_0017570; GDP in G domain (domain I)
The assay can be described thus: cryo-EM structure. Type of assay: binding.

T1 sequence (A8BU59 1-898): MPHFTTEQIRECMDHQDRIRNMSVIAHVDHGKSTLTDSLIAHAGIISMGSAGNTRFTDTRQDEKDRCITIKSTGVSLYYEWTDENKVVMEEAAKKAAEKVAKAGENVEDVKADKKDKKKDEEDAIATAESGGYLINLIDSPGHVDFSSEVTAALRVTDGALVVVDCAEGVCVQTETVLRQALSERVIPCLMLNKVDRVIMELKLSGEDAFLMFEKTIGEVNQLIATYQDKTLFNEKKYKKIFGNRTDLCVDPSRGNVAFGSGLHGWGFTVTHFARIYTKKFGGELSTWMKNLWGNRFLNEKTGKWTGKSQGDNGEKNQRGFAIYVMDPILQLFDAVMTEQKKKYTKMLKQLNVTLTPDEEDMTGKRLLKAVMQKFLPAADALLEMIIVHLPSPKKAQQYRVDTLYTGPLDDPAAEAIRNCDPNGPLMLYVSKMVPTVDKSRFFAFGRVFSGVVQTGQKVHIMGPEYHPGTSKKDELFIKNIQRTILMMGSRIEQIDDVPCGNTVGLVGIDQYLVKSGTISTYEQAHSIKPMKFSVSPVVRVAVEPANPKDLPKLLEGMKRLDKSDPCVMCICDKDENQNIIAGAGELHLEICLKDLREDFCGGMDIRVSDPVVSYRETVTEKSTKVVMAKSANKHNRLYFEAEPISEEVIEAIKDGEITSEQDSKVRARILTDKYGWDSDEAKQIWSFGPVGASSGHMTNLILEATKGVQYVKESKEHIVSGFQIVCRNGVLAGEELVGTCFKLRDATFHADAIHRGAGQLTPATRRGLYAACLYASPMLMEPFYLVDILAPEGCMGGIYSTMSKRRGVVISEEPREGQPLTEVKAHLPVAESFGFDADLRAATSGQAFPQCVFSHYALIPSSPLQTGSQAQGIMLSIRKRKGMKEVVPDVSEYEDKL

Turning to `Nc1nc2c(ncn2[C@@H]2O[C@H](COP(=O)(O)OP(=O)(O)O)[C@@H](O)[C@H]2O)c(=O)[nH]1` [GDP], the cryo-EM structure entry (ribosome-bound eEF2, state B (chimeric hybrid), G domain, P-loop (G1), G4 and G5 motifs, naturally bound, no inhibitor or analog added) is recorded as “We found a clear density of GDP in the G domain of eEF2”.
In the case of `O=P(O)(O)O` [Pi], where the note is “ribosome-bound eEF2·GDP, state B, leaving phosphate of GTP hydrolysis, held by H143 of switch-II”, the cryo-EM structure entry was “A distinct density of the ‘leaving Pi’ group can be seen”.
